Data reported in patent US6358885B1, “Substituted phenylheterocyclic herbicides” (Mississippi State University, priority 1992, dated 2002).

Experiments:
Assay in all cases: Test G preemergence/postemergence greenhouse plant response rating 0 to 100
alfalfa = type: in vivo, Medicago ativa; conditions: 0 to 100 scale
In short: (§1)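 Pre- and postemergence treatments used compound in non-phytotoxic solvent on potted greenhouse plants grown from seed, rhizome or plant part. Postemergence plants were at the 2–4 leaf stage; damage was assessed by eye versus untreated pots after 13–21 days.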

annual bluegrass = type: in vivo, Poa annua; conditions: 0 to 100 scale
In short: as §1

bermudagrass = type: in vivo, Cynodon dactylon; conditions: 0 to 100 scale
In short: as §1

common purslane = type: in vivo, Portulaca oleracea; conditions: 0 to 100 scale
In short: as §1

common ragweed = type: in vivo, Ambrosia elatior; conditions: 0 to 100 scale
In short: as §1

dallisgrass = type: in vivo, Paspalum dilatatum; conditions: 0 to 100 scale
In short: as §1

goosegrass = type: in vivo, Eleusine indica; conditions: 0 to 100 scale
In short: as §1

guineagrass = type: in vivo, Panicum maximum; conditions: 0 to 100 scale
In short: as §1

itchgrass = type: in vivo, Rottboellia exaltata; conditions: 0 to 100 scale
In short: as §1

johnsongrass = type: in vivo, Sorghum halepense; conditions: 0 to 100 scale
In short: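 Greenhouse pots, one species each; non-phytotoxic solvent vehicle. Read-out: visual injury vs untreated, 13–21 DAT. Dash denotes no result.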

large crabgrass = type: in vivo, Digitaria sanguinalis; conditions: 0 to 100 scale
In short: as §1

peanut = type: in vivo, Arachis hypoagaea; conditions: 0 to 100 scale
In short: as §1

pitted morningglory = type: in vivo, Ipomoea lacunosa; conditions: 0 to 100 scale
In short: as §1

purple nutsedge = type: in vivo, Cyperus rotundus; conditions: Rate 125 g/ha, 0 to 100 scale
In short: as §1

sandbur = type: in vivo, Cenchrus echinatus; conditions: 0 to 100 scale
In short: as §1

smooth crabgrass = type: in vivo, Digitaria ischaemum; conditions: 0 to 100 scale
In short: as §1

yellow nutsedge = type: in vivo, Cyperus esculentus; conditions: Rate 125 g/ha, 0 to 100 scale
In short: as §1

Structure (SMILES): C#CCN1C(=O)COc2cc(F)c(-c3nn4c(c3Cl)CCCC4)cc21 [Compound 34]
- Plant response rating, Alfalfa Var. (alfalfa; POSTEMERGENCE, Rate 125 g/ha): 40
- Plant response rating, Alfalfa Var. (alfalfa; POSTEMERGENCE, Rate 250 g/ha): 60
- Plant response rating, Alfalfa Var. (alfalfa; PREEMERGENCE, Rate 125 g/ha): 0
- Plant response rating, Alfalfa Var. (alfalfa; PREEMERGENCE, Rate 250 g/ha): 100
- Plant response rating, Ann Bluegrass (annual bluegrass; POSTEMERGENCE, Rate 125 g/ha): 0
- Plant response rating, Ann Bluegrass (annual bluegrass; POSTEMERGENCE, Rate 250 g/ha): 0
- Plant response rating, Ann Bluegrass (annual bluegrass; PREEMERGENCE, Rate 125 g/ha): 0
- Plant response rating, Ann Bluegrass (annual bluegrass; PREEMERGENCE, Rate 250 g/ha): 50
- Plant response rating, Bermudagrass (bermudagrass; POSTEMERGENCE, Rate 125 g/ha): 0
- Plant response rating, Bermudagrass (bermudagrass; POSTEMERGENCE, Rate 250 g/ha): 0
- Plant response rating, Bermudagrass (bermudagrass; PREEMERGENCE, Rate 125 g/ha): 0
- Plant response rating, Bermudagrass (bermudagrass; PREEMERGENCE, Rate 250 g/ha): 0
- Plant response rating, Cmn Purslane (common purslane; POSTEMERGENCE, Rate 125 g/ha): 100
- Plant response rating, Cmn Purslane (common purslane; POSTEMERGENCE, Rate 250 g/ha): 100
- Plant response rating, Cmn Purslane (common purslane; PREEMERGENCE, Rate 125 g/ha): 0
- Plant response rating, Cmn Purslane (common purslane; PREEMERGENCE, Rate 250 g/ha): 100
- Plant response rating, Cmn Ragweed (common ragweed; POSTEMERGENCE, Rate 125 g/ha): 70
- Plant response rating, Cmn Ragweed (common ragweed; POSTEMERGENCE, Rate 250 g/ha): 100
- Plant response rating, Cmn Ragweed (common ragweed; PREEMERGENCE, Rate 125 g/ha): 0
- Plant response rating, Cmn Ragweed (common ragweed; PREEMERGENCE, Rate 250 g/ha): 0
- Plant response rating, Dallisgrass (dallisgrass; POSTEMERGENCE, Rate 125 g/ha): 0
- Plant response rating, Dallisgrass (dallisgrass; POSTEMERGENCE, Rate 250 g/ha): 0
- Plant response rating, Dallisgrass (dallisgrass; PREEMERGENCE, Rate 125 g/ha): 0
- Plant response rating, Dallisgrass (dallisgrass; PREEMERGENCE, Rate 250 g/ha): 80
- Plant response rating, Goosegrass (goosegrass; POSTEMERGENCE, Rate 125 g/ha): 0
- Plant response rating, Goosegrass (goosegrass; POSTEMERGENCE, Rate 250 g/ha): 0
- Plant response rating, Goosegrass (goosegrass; PREEMERGENCE, Rate 125 g/ha): 0
- Plant response rating, Goosegrass (goosegrass; PREEMERGENCE, Rate 250 g/ha): 30
- Plant response rating, Guineagrass (guineagrass; POSTEMERGENCE, Rate 125 g/ha): 0
- Plant response rating, Guineagrass (guineagrass; POSTEMERGENCE, Rate 250 g/ha): 0
- Plant response rating, Guineagrass (guineagrass; PREEMERGENCE, Rate 125 g/ha): 0
- Plant response rating, Guineagrass (guineagrass; PREEMERGENCE, Rate 250 g/ha): 0
- Plant response rating, Itchgrass (itchgrass; POSTEMERGENCE, Rate 125 g/ha): 0
- Plant response rating, Itchgrass (itchgrass; POSTEMERGENCE, Rate 250 g/ha): 0
- Plant response rating, Itchgrass (itchgrass; PREEMERGENCE, Rate 125 g/ha): 0
- Plant response rating, Itchgrass (itchgrass; PREEMERGENCE, Rate 250 g/ha): 20
- Plant response rating, Johnsongrass (johnsongrass; POSTEMERGENCE, Rate 125 g/ha): 0
- Plant response rating, Johnsongrass (johnsongrass; POSTEMERGENCE, Rate 250 g/ha): 0
- Plant response rating, Johnsongrass (johnsongrass; PREEMERGENCE, Rate 125 g/ha): 0
- Plant response rating, Johnsongrass (johnsongrass; PREEMERGENCE, Rate 250 g/ha): 0
- Plant response rating, Large Crabgrass (large crabgrass; POSTEMERGENCE, Rate 125 g/ha): 0
- Plant response rating, Large Crabgrass (large crabgrass; POSTEMERGENCE, Rate 250 g/ha): 0
- Plant response rating, Large Crabgrass (large crabgrass; PREEMERGENCE, Rate 125 g/ha): 0
- Plant response rating, Large Crabgrass (large crabgrass; PREEMERGENCE, Rate 250 g/ha): 60
- Plant response rating, Peanuts (peanut; POSTEMERGENCE, Rate 125 g/ha): 30
- Plant response rating, Peanuts (peanut; POSTEMERGENCE, Rate 250 g/ha): 0
- Plant response rating, Peanuts (peanut; PREEMERGENCE, Rate 125 g/ha): 0
- Plant response rating, Peanuts (peanut; PREEMERGENCE, Rate 250 g/ha): 0
- Plant response rating, Pit Morninglory (pitted morningglory; POSTEMERGENCE, Rate 125 g/ha): 30
- Plant response rating, Pit Morninglory (pitted morningglory; POSTEMERGENCE, Rate 250 g/ha): 50
- Plant response rating, Pit Morninglory (pitted morningglory; PREEMERGENCE, Rate 125 g/ha): 0
- Plant response rating, Pit Morninglory (pitted morningglory; PREEMERGENCE, Rate 250 g/ha): 30
- Plant response rating, Purple Nutsedge (purple nutsedge; POSTEMERGENCE): 20
- Plant response rating, Purple Nutsedge (purple nutsedge; PREEMERGENCE): 0
- Plant response rating, S. Sandbur (sandbur; POSTEMERGENCE, Rate 125 g/ha): 0
- Plant response rating, S. Sandbur (sandbur; POSTEMERGENCE, Rate 250 g/ha): 0
- Plant response rating, S. Sandbur (sandbur; PREEMERGENCE, Rate 125 g/ha): 0
- Plant response rating, S. Sandbur (sandbur; PREEMERGENCE, Rate 250 g/ha): 0
- Plant response rating, Smooth Crabgras (smooth crabgrass; POSTEMERGENCE, Rate 125 g/ha): 0
- Plant response rating, Smooth Crabgras (smooth crabgrass; POSTEMERGENCE, Rate 250 g/ha): 0
- Plant response rating, Smooth Crabgras (smooth crabgrass; PREEMERGENCE, Rate 125 g/ha): 0
- Plant response rating, Smooth Crabgras (smooth crabgrass; PREEMERGENCE, Rate 250 g/ha): 80
- Plant response rating, Yellow Nutsedge (yellow nutsedge; POSTEMERGENCE): 0
- Plant response rating, Yellow Nutsedge (yellow nutsedge; PREEMERGENCE): 0
